Experimental data from patent US8883782B2, “Spiro-tetracyclic ring compounds as beta-secretase modulators and methods of use” (Amgen Inc., priority 2010, dated 2014).

Tests used:
[1] = tested on: Aβ40 in conditioned medium of cells stably expressing Amyloid Precursor Protein (APP); experiment: In vitro BACE cell-based assay (Aβ40 in conditioned medium, sandwich ELISA); conditions: Homo sapiens, HEK293, average IC50, HEK cells; read-out: HEK cell assay
How it was run: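 Quantification relied on pAb40/6E10 sandwich ELISA with Europium fluorescence counts, and IC50 was fitted versus concentration.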

[2] = target: Beta Secretase enzyme (BACE) (Homo sapiens, UniProt P56817); experiment: In vitro enzymatic BACE FRET (fluorescence resonance energy transfer) assay; format: biochemical; conditions: average IC50, enzyme assay; read-out: BACE 1 FRET assay
Sequence of Beta Secretase enzyme (BACE) (P56817 46-501, species assumed): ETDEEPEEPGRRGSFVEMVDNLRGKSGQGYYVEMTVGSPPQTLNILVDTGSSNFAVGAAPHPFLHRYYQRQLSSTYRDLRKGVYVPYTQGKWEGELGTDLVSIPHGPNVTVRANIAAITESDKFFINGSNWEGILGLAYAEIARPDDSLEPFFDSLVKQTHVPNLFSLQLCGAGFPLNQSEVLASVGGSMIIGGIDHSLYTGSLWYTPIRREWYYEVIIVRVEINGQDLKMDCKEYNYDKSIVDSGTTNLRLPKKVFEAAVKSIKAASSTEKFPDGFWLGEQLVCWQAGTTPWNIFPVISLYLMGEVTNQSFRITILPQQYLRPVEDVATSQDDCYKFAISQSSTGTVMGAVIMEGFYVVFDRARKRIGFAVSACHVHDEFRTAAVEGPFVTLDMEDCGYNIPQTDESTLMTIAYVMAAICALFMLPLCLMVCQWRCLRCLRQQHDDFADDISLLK
How it was run: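 Cleavage of a 50 nM fluorophore/quencher peptide FRET substrate by BACE for 1 h in 0.05 M acetate pH 4.2, 10% DMSO, 100 uM genapol. Reaction stopped with Tris to neutral pH before fluorescence reading.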

Compound	IC50 [1] [nM]	IC50 [2] [nM]
COc1ncc(-c2ccc3c(c2)[C@@]2(COC(N)=N2)c2cc(N4CCC(F)(F)C4)ncc2O3)cn1 [Example 415, (5S)-3-(3,3-difluoro-1-pyrrolidinyl)-7-(2-methoxy-5-pyrimidinyl)spiro[chromeno[2,3-c]pyridine-5,4′-[1,3]oxazol]-2′-amine]	367	81.7
COC(C)(C)CNc1cc2c(cn1)Oc1ccc(-c3cccnc3F)cc1[C@@]21COC(N)=N1 [Example 418, (5S)-7-(2-fluoro-3-pyridinyl)-N~3~-(2-methoxy-2-methylpropyl)spiro[chromeno[2,3-c]pyridine-5,4′-[1,3]oxazole]-2′,3-diamine]	14.1	3
COc1ncc(-c2ccc3c(c2)[C@@]2(COC(N)=N2)c2cc(N4CCC(F)(F)CC4)ncc2O3)cn1 [Example 419, (5S)-3-(4,4-difluoro-1-piperidinyl)-7-(2-methoxy-5-pyrimidinyl)spiro[chromeno[2,3-c]pyridine-5,4′-[1,3]oxazol]-2′-amine]	602	172
Cc1cnc(F)c(-c2ccc3c(c2)[C@@]2(COC(N)=N2)c2cc(N4CCC(F)(F)CC4)ncc2O3)c1 [Example 420, (5S)-3-(4,4-difluoro-1-piperidinyl)-7-(2-fluoro-5-methyl-3-pyridinyl)spiro[chromeno[2,3-c]pyridine-5,4′-[1,3]oxazol]-2′-amine]	15.1	1.2
Cc1cnc(F)c(-c2ccc3c(c2)[C@@]2(COC(N)=N2)c2cc(N4CCC(F)(F)C4)ncc2O3)c1 [Example 421, (5S)-3-(3,3-difluoro-1-pyrrolidinyl)-7-(2-fluoro-5-methyl-3-pyridinyl)spiro[chromeno[2,3-c]pyridine-5,4′-[1,3]oxazol]-2′-amine]	5.3	0.5
Cc1cnc(F)c(-c2ccc3c(c2)[C@@]2(COC(N)=N2)c2cc(-c4ccnc(F)c4)ncc2O3)c1 [Example 422, (5S)-7-(2-fluoro-5-methyl-3-pyridinyl)-3-(2-fluoro-4-pyridinyl)spiro[chromeno[2,3-c]pyridine-5,4′-[1,3]oxazol]-2′-amine]	23.2	2.1
NC1=N[C@@]2(CO1)c1cc(-c3ccc(N4CCC(F)(F)C4)nc3)ccc1Oc1cnc(N3CCC(F)(F)C3)cc12 [Example 423, (5S)-3-(3,3-difluoro-1-pyrrolidinyl)-7-(6-(3,3-difluoro-1-pyrrolidinyl)-3-pyridinyl)spiro[chromeno[2,3-c]pyridine-5,4′-[1,3]oxazol]-2′-amine]	402	458
NC1=N[C@@]2(CO1)c1cc(-c3cncc(N4CCC(F)(F)C4)c3)ccc1Oc1cnc(Cl)cc12 [Example 427, (5S)-3-chloro-7-(5-(3,3-difluoro-1-pyrrolidinyl)-3-pyridinyl)spiro[chromeno[2,3-c]pyridine-5,4′-[1,3]oxazol]-2′-amine]	610	640
NC1=N[C@@]2(CO1)c1cc(-c3cccnc3F)ccc1Oc1cnc(N3CCCC(F)(F)C3)cc12 [Example 430, (5S)-3-(3,3-difluoro-1-piperidinyl)-7-(2-fluoro-3-pyridinyl)spiro[chromeno[2,3-c]pyridine-5,4′-[1,3]oxazol]-2′-amine]	6.9	0.6
COc1ccc2c(c1)C1(COC(N)=N1)c1cc(N3CCC(F)(F)C3)ncc1O2 (centres unmarked) [Example 431, 3-(3,3-difluoro-1-pyrrolidinyl)-7-methoxyspiro[chromeno[2,3-c]pyridine-5,4′-[1,3]oxazol]-2′-amine]	10000	1730
CC(C)(C)/C=C/c1cc2c(cn1)Oc1ccc(-c3ccc(F)nc3)cc1[C@@]21COC(N)=N1 [Example 434, (5S)-3-((1E)-3,3-dimethyl-1-buten-1-yl)-7-(6-fluoro-3-pyridinyl)spiro[chromeno[2,3-c]pyridine-5,4′-[1,3]oxazol]-2′-amine]	31.7	3
CC(C)N(C)c1cc2c(cn1)Oc1ccc(-c3cccnc3)cc1[C@@]21COC(N)=N1 [Example 435, (5S)-N~3~-methyl-N~3~-(1-methylethyl)-7-(3-pyridinyl)spiro[chromeno[2,3-c]pyridine-5,4′-[1,3]oxazole]-2′,3-diamine]	29.6	5.6
CC1(COc2ccc3c(c2)[C@@]2(COC(N)=N2)c2cc(Br)cc(F)c2O3)COC1 [Example 437, (4S)-2′-bromo-4′-fluoro-7′-((3-methyl-3-oxetanyl)methoxy)spiro[1,3-oxazole-4,9′-xanthen]-2-amine]	1920	202
CC1(COc2ccc3c(c2)[C@@]2(COC(N)=N2)c2cc(C4=CCOCC4)cc(F)c2O3)COC1 [Example 438, (4S)-2′-(3,6-dihydro-2H-pyran-4-yl)-4′-fluoro-7′-((3-methyl-3-oxetanyl)methoxy)spiro[1,3-oxazole-4,9′-xanthen]-2-amine]	34.6	9
Cc1cc(-c2cc(F)c3c(c2)[C@]2(COC(N)=N2)c2cc(OCC4(C)COC4)ccc2O3)ccn1 [Example 439, (4S)-4′-fluoro-7′-((3-methyl-3-oxetanyl)methoxy)-2′-(2-methyl-4-pyridinyl)spiro[1,3-oxazole-4,9′-xanthen]-2-amine]	156	186
Cc1ccc(-c2cc(F)c3c(c2)[C@]2(COC(N)=N2)c2cc(OCC4(C)COC4)ccc2O3)cn1 [Example 440, (4S)-4′-fluoro-7′-((3-methyl-3-oxetanyl)methoxy)-2′-(6-methyl-3-pyridinyl)spiro[1,3-oxazole-4,9′-xanthen]-2-amine]	16.9	11.7
CC(C)(C#N)COc1ccc2c(c1)[C@@]1(COC(N)=N1)c1cc(C3=CCOCC3)cc(F)c1O2 [Example 441, 3-(((4S)-2-amino-7′-(3,6-dihydro-2H-pyran-4-yl)-5′-fluorospiro[1,3-oxazole-4,9′-xanthen]-2′-yl)oxy)-2,2-dimethylpropanenitrile]	14.4	4

Second part, the compound after the results:

IC50 [1] [nM]	IC50 [2] [nM]	Compound
128	28.7	N#CC1CN(c2cc3c(cn2)Oc2ccc(-c4cccnc4)cc2[C@@]32COC(N)=N2)C1 [Example 410, 1-((5S)-2′-amino-7-(3-pyridinyl)spiro[chromeno[2,3-c]pyridine-5,4′-[1,3]oxazol]-3-yl)-3-azetidinecarbonitrile]
4.5	2.3	NC1=N[C@@]2(CO1)c1cc(-c3cccnc3)ccc1Oc1cnc(N3CC[C@@H](F)C3)cc12 [Example 411, (5S)-3-((3R)-3-fluoro-1-pyrrolidinyl)-7-(3-pyridinyl)spiro[chromeno[2,3-c]pyridine-5,4′-[1,3]oxazol]-2′-amine]
20.8	7.6	NC1=N[C@@]2(CO1)c1cc(-c3cccnc3)ccc1Oc1cnc(N3CC[C@H](F)C3)cc12 [Example 412, (5S)-3-((3S)-3-fluoro-1-pyrrolidinyl)-7-(3-pyridinyl)spiro[chromeno[2,3-c]pyridine-5,4′-[1,3]oxazol]-2′-amine]
5.6	0.8	NC1=N[C@@]2(CO1)c1cc(-c3cncc(F)c3)ccc1Oc1cnc(N3CCC(F)(F)C3)cc12 [Example 413, (5S)-3-(3,3-difluoro-1-pyrrolidinyl)-7-(5-fluoro-3-pyridinyl)spiro[chromeno[2,3-c]pyridine-5,4′-[1,3]oxazol]-2′-amine]
336	84.5	COc1ncc(-c2ccc3c(c2)[C@@]2(COC(N)=N2)c2cc(N4CC[C@@H](F)C4)ncc2O3)cn1 [Example 417, (5S)-3-((3R)-3-fluoro-1-pyrrolidinyl)-7-(2-methoxy-5-pyrimidinyl)spiro[chromeno[2,3-c]pyridine-5,4′-[1,3]oxazol]-2′-amine]
18	1.5	N#Cc1cccc(-c2ccc3c(c2)[C@@]2(COC(N)=N2)c2cc(N4CCC(F)(F)CC4)ncc2O3)c1 [Example 424, 3-((5S)-2′-amino-3-(4,4-difluoro-1-piperidinyl)spiro[chromeno[2,3-c]pyridine-5,4′-[1,3]oxazol]-7-yl)benzonitrile]
4.8	0.8	N#Cc1cccc(-c2ccc3c(c2)[C@@]2(COC(N)=N2)c2cc(N4CC[C@@H](F)C4)ncc2O3)c1 [Example 425, 3-((5S)-2′-amino-3-((3R)-3-fluoro-1-pyrrolidinyl)spiro[chromeno[2,3-c]pyridine-5,4′-[1,3]oxazol]-7-yl)benzonitrile]
16.8	3.5	N#Cc1cccc(-c2ccc3c(c2)[C@@]2(COC(N)=N2)c2cc(N4CC[C@H](F)C4)ncc2O3)c1 [Example 426, 3-((5S)-2′-amino-3-((3S)-3-fluoro-1-pyrrolidinyl)spiro[chromeno[2,3-c]pyridine-5,4′-[1,3]oxazol]-7-yl)benzonitrile]
2200	604	NC1=N[C@@]2(CO1)c1cc(-c3cncc(N4CC[C@H](F)C4)c3)ccc1Oc1cnc(Cl)cc12 [Example 428, (5S)-3-chloro-7-(5-((3S)-3-fluoro-1-pyrrolidinyl)-3-pyridinyl)spiro[chromeno[2,3-c]pyridine-5,4′-[1,3]oxazol]-2′-amine]
2210	3230	NC1=N[C@@]2(CO1)c1cc(-c3cncc(N4CC[C@@H](F)C4)c3)ccc1Oc1cnc(Cl)cc12 [Example 429, (5S)-3-chloro-7-(5-((3R)-3-fluoro-1-pyrrolidinyl)-3-pyridinyl)spiro[chromeno[2,3-c]pyridine-5,4′-[1,3]oxazol]-2′-amine]
8	0.6	NC1=N[C@@]2(CO1)c1cc(-c3cccnc3F)ccc1Oc1cnc(N3CCC(F)CC3)cc12 [Example 436, (5S)-3-(4-fluoro-1-piperidinyl)-7-(2-fluoro-3-pyridinyl)spiro[chromeno[2,3-c]pyridine-5,4′-[1,3]oxazol]-2′-amine]
